According to patent publication US20090099065A1, “Acylated Single Chain Insulin” (Novo Nordisk A/S, priority 2006, published 2009):

Assays:
human insulin receptor = human insulin receptor (Homo sapiens, UniProt P06213); experiment: Assay (I): insulin receptor binding, SPA microtiterplate antibody capture assay; settings: purified recombinant human insulin receptor - exon 11; A14 Tyr[125I]-human insulin tracer; human insulin = 100%
Description: Insulin Receptor Binding of the Acylated, Single-Chain Insulin
The affinity of the acylated, single-chain insulins for the human insulin receptor can be determined by a SPA assay (Scintillation Proximity Assay) microtiterplate antibody capture assay. SPA-PVT antibody-binding beads, anti-mouse reagent (Amersham Biosciences, Cat No. PRNQ0017) are mixed with 25 ml of binding buffer (100 mM HEPES pH 7.8; 100 mM sodium chloride, 10 mM MgSO4, 0.025% Tween-20). Reagent mix for a single Packard Optiplate (Packard No. 6005190) is composed of 2.4 μl of a 1:5000 diluted purified recombinant human insulin receptor—exon 11, an amount of a stock solution of A14 Tyr[125I]-human insulin corresponding to 5000 cpm per 100 μl of reagent mix, 12 μl of a 1:1000 dilution of F12 antibody, 3 ml of SPA-beads and binding buffer to a total of 12 ml. A total of 100 μl is then added and a dilution series is made from appropriate samples. To the dilution series is then added 100 μl of reagent mix and the samples are incubated for 16 hours while gently shaken. The phases are then separated by centrifugation for 1 min and the plates counted in a Topcounter. The binding data are fitted using the nonlinear regression algorithm in the GraphPad Prism 2.01 (GraphPad Software, San Diego, Calif.).

[1] = biological target: purified recombinant human insulin receptor-exon 11 (human) (UniProt P06213); experiment: assay (I): SPA, displacement of A14 Tyr[125I]-human insulin from recombinant human insulin receptor
purified recombinant human insulin receptor-exon 11 (human), sequence (P06213 other isoform, or with tags, fused parts or gaps limits assumed, form in doubt): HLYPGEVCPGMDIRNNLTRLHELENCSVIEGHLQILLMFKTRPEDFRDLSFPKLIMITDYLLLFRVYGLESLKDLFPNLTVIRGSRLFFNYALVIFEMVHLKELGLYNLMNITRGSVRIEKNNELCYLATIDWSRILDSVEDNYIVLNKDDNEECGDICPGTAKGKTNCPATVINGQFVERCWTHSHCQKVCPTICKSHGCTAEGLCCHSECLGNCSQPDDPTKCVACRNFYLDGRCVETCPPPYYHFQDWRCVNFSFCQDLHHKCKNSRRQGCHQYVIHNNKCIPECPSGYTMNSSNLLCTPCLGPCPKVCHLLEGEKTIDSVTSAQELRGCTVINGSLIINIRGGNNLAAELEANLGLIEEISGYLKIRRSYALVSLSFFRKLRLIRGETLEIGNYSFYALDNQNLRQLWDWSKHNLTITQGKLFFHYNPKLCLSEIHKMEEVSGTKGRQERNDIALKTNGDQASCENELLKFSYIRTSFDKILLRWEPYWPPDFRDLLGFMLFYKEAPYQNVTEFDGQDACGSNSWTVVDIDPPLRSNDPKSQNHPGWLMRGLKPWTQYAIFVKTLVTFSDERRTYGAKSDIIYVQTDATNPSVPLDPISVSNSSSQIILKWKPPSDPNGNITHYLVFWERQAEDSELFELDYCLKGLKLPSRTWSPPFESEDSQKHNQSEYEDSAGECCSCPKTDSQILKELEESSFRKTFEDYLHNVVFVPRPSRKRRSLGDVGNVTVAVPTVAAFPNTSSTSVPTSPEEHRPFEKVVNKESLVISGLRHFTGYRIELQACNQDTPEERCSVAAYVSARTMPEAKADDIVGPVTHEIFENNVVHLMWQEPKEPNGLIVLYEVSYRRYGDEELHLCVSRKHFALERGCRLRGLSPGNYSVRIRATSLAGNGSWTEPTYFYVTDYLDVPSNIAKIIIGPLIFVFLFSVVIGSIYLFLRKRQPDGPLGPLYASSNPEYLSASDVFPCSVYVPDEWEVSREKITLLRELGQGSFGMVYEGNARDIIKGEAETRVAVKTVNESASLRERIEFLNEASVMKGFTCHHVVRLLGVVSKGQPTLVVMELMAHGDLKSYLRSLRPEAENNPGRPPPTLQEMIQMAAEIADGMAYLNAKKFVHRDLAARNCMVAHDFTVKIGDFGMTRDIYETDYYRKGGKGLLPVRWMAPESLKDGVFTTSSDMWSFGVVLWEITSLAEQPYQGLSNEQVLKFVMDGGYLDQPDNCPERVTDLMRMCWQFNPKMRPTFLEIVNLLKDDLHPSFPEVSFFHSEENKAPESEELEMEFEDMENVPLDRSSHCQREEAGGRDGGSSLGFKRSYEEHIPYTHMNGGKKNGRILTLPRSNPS

human insulin receptor, sequence (P06213 28-746 isoform P06213-2 limits assumed): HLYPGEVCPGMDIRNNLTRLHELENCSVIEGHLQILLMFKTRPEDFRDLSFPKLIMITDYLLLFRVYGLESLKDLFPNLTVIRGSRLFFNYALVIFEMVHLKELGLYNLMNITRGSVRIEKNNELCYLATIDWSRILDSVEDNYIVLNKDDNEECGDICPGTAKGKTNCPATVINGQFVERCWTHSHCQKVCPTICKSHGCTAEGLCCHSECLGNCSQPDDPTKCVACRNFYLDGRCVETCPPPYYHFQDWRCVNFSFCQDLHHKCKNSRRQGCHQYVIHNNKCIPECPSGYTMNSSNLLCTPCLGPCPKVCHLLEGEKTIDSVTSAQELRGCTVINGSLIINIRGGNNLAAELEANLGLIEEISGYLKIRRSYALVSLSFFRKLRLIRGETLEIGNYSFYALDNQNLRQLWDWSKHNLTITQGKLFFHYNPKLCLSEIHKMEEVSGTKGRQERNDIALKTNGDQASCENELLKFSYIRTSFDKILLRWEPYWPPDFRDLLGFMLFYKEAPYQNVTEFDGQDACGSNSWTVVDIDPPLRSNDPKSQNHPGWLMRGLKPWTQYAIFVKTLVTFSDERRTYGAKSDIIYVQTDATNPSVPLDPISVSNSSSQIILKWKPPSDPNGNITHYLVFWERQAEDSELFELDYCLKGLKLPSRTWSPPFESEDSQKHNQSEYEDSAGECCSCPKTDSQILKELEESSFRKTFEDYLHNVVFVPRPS
human insulin receptor, sequence (P06213 763-1382 partner limits assumed): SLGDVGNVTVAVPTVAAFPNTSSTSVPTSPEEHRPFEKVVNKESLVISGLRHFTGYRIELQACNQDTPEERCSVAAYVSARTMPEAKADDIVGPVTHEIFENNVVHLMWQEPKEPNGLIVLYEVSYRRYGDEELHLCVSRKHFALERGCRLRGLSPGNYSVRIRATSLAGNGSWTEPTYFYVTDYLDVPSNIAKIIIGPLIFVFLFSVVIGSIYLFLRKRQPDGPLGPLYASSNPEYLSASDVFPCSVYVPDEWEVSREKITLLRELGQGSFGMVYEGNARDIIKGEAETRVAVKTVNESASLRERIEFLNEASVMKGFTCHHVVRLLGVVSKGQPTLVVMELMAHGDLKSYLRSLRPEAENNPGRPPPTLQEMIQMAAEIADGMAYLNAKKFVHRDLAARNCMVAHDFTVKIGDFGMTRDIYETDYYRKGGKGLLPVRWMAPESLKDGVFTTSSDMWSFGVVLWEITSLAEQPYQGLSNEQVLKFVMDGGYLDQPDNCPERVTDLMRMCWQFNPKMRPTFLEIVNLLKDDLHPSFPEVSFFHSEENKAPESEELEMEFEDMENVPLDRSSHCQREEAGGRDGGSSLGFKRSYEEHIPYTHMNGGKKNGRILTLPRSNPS

Substance | insulin receptor binding relative to that of human insulin [1] | insulin receptor binding relative to that of human insulin (human insulin receptor)
B(1-29)-B29A-VGLSSGQ-A(1-22)-A18Q-A22K((eps)heptadecandioyl-g-Glu) Human Insulin [Example 10] | – | 43%
B(1-29)-B29A-VGLSSGQ-A(1-22)-A18Q, A22K(N(eps)octadecandioyl) Human Insulin [Example 5] | – | 24%
B(1-29)-B29H-TGLGSGR-A(1-21)-A18K(N-eps-hexadecandioyl-g-L-Glu)-A21 G Human insulin [Example 7] | – | 45.7%
B(1-29)-B29Q-TGLGSCR-A(1-22)-A18Q, A21 G-A22K(N (eps)hexadecand ioyl-g-LGlu) Human Insulin [Example 8] | – | 112.8%
B(1-29)-B29A-VGLSSGQ-A(1-21)-A8K(N(eps)hexadecandioyl-gGlu)-A18Q Human Insulin [Example 6] | – | 73%
B(1-29)-B29A-VGLSSGQ-A(1-21)-A15K(N(eps)-hexadecandioyl-g-L-Glu)-A18Q Human Insulin [Example 9] | – | 17.4%
B(1-29)-B29A-VGLSSGQ-A(1-22)-A18Q, A22K(N(eps)myristoyl) Human Insulin [Example 2] | – | 62%
B(1-29)-B29A-VGLSSGQ-A(1-21)-A18K(N(eps)myristoyl) Human Insulin [Example 3] | – | 27%
B(1-29)-B29A-VGLSSGQ-A(1-22)-A18Q, A22K(N(eps)hexadecandioyl-gGlu) Human Insulin [Example 4] | – | 44%
B(1-29)-B29A-VGLSSGQ-A(1-22)-A18Q-A22K((eps)heptadecandioyl-g-Glu) Human Insulin (from UniProt P01308 25-53; P01308 90-110) (ligand) | 43% | –
B(1-29)-B29A-VGLSSGQ-A(1-21)-A18K(N(eps)hexadecandioyl-gGlu) Human Insulin [Example 1] | – | 25%

More lines, main results first:

insulin receptor binding relative to that of human insulin [1] | Substance | insulin receptor binding relative to that of human insulin (human insulin receptor)
44% | B(1-29)-B29A-VGLSSGQ-A(1-22)-A18Q, A22K(N(eps)hexadecandioyl-gGlu) Human Insulin (from UniProt P01308 25-53; P01308 90-110) (ligand) | –
45.7% | B(1-29)-B29H-TGLGSGR-A(1-21)-A18K(N-eps-hexadecandioyl-g-L-Glu)-A21 G Human insulin (from UniProt P01308 25-53; P01308 90-110) (ligand) | –
73% | B(1-29)-B29A-VGLSSGQ-A(1-21)-A8K(N(eps)hexadecandioyl-gGlu)-A18Q Human Insulin (from UniProt P01308 25-53; P01308 90-110) (ligand) | –
113% | B(1-29)-B29Q-TGLGSCR-A(1-22)-A18Q, A21 G-A22K(N (eps)hexadecand ioyl-g-LGlu) Human Insulin (from UniProt P01308 25-53; P01308 90-110) (ligand) | –
62% | B(1-29)-B29A-VGLSSGQ-A(1-22)-A18Q, A22K(N(eps)myristoyl) Human Insulin (from UniProt P01308 25-53; P01308 90-110) (ligand) | –
27% | B(1-29)-B29A-VGLSSGQ-A(1-21)-A18K(N(eps)myristoyl) Human Insulin (from UniProt P01308 25-53; P01308 90-110) (ligand) | –
17.4% | B(1-29)-B29A-VGLSSGQ-A(1-21)-A15K(N(eps)-hexadecandioyl-g-L-Glu)-A18Q Human Insulin (from UniProt P01308 25-53; P01308 90-110) (ligand) | –
24% | B(1-29)-B29A-VGLSSGQ-A(1-22)-A18Q, A22K(N(eps)octadecandioyl) Human Insulin (from UniProt P01308 25-53; P01308 90-110) (ligand) | –
25% | B(1-29)-B29A-VGLSSGQ-A(1-21)-A18K(N(eps)hexadecandioyl-gGlu) Human Insulin (from UniProt P01308 25-53; P01308 90-110) (ligand) | –
